“And” between values parts separate entries of the source, which are not always exact repeats. Equal values may be shown once.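 Method: 48-hour compound exposure of cells in 96-well plates, five concentrations, linear interpolation of endpoints. Abbreviation: GI50, concentration required for 50% inhibition of growth. TGI is the concentration that stops growth completely.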 Some results are limits rather than exact numbers.

Some test systems named below: ACHN renal; COLO 205 colon; DU-145 prostate; HT29 colon; K-562 leukemia; NCI-H460 lung; OVCAR-8 ovarian; SW-620 colon; T-47D breast; UO-31 renal.
What all share (experiment): DTP human tumour cell line panel, 48 h

`N=C1C(c2nc3ccccc3s2)=C(O)CN1c1cc(C(F)(F)F)ccc1Cl`: the GI50 (as a rule, the concentration giving 50% growth inhibition) is 21.2 µM with ACHN renal; 30.8 µM in the assay on COLO 205 colon; 25.8 µM with DU-145 prostate; 25.8 µM with HT29 colon; 3.61 µM with K-562 leukemia; 13.3 µM in the assay on NCI-H460 lung. Moreover, the GI50 in the assay with OVCAR-8 ovarian was 32.9 µM; in the assay with SW-620 colon, 36.4 µM; in the assay with T-47D breast, 48.1 µM; with UO-31 renal, 2.63 µM. In addition, the TGI (commonly the concentration at which net growth stops) was above 100 µM in the assay on ACHN renal; above 100 µM in the assay with COLO 205 colon; above 100 µM with DU-145 prostate; above 100 µM in the assay on HT29 colon; 21.3 µM in the assay on K-562 leukemia; 77.9 µM in the assay on NCI-H460 lung. The TGI in the assay on OVCAR-8 ovarian is above 100 µM; in the assay with SW-620 colon, above 100 µM; in the assay with T-47D breast it was above 100 µM; with UO-31 renal, 6.18 µM.
Turning to `COC(=O)C1=CNC=C(C(=O)OC)C1C1=CC(=O)C(C)=CC1=O`, the GI50 is 2.52 µM with ACHN renal; 22.9 µM in the assay with COLO 205 colon; 16 µM with DU-145 prostate; 29.9 µM with HT29 colon; 1.36 µM in the assay on K-562 leukemia; 14.2 µM with NCI-H460 lung. Moreover, the GI50 is 14.3 µM with OVCAR-8 ovarian, 8.43 µM with SW-620 colon, 17.9 µM with T-47D breast and 12 µM in the assay on UO-31 renal. Besides, the TGI is 8.18 µM with ACHN renal; 55.1 µM in the assay on COLO 205 colon; 30.3 µM in the assay with DU-145 prostate; above 100 µM in the assay with HT29 colon; 3.84 µM in the assay with K-562 leukemia; 30.5 µM in the assay with NCI-H460 lung. For the same compound, the concentration for total growth inhibition (TGI) worked out at 29.1 µM in the assay with OVCAR-8 ovarian, 22.2 µM with SW-620 colon, 44.6 µM in the assay on T-47D breast and 24.5 µM in the assay on UO-31 renal.
On to `CC(C)n1nc(-c2cc3cc(O)ccc3[nH]2)c2c(N)ncnc21`, for which the concentration for 50% growth inhibition (GI50) in the assay with ACHN renal is 0.224 µM; with COLO 205 colon, 0.363 µM; in the assay on DU-145 prostate, 0.498 µM; in the assay on HT29 colon, 0.465 µM; in the assay on K-562 leukemia, 0.579 µM; with NCI-H460 lung, 0.127 µM. In addition, the GI50 was 0.314 µM in the assay with OVCAR-8 ovarian, 1.31 µM in the assay with SW-620 colon, 0.0435 µM in the assay on T-47D breast and 0.0464 µM with UO-31 renal. Also, the concentration for total growth inhibition (TGI) worked out at 5.18 µM with ACHN renal; 4.19 µM with COLO 205 colon; 12 µM in the assay on DU-145 prostate; 28.7 µM in the assay on HT29 colon; 36.1 µM with K-562 leukemia; 9.38 µM in the assay with NCI-H460 lung. The TGI came to 3.21 µM in the assay on OVCAR-8 ovarian, 14.2 µM in the assay on SW-620 colon, 0.417 µM with T-47D breast and 0.726 µM with UO-31 renal.
With `CCOC(=O)c1c(C)n(Cc2ccc(Cl)cc2Cl)c2c1c(CN(C)C)c(O)c1[nH]cnc12`, the GI50 in the assay on ACHN renal is 15.4 µM; in the assay on COLO 205 colon, 20.1 µM; in the assay with DU-145 prostate, 17.2 µM; in the assay on HT29 colon it was 18 µM; in the assay with K-562 leukemia, 3.22 µM; in the assay with NCI-H460 lung it was 15.3 µM. Further, the GI50 was 15.1 µM in the assay on OVCAR-8 ovarian, 20.1 µM with SW-620 colon, 3.55 µM in the assay with T-47D breast and 18.9 µM in the assay on UO-31 renal. For the same compound, the TGI in the assay with ACHN renal was found to be 28.7 µM; with COLO 205 colon, 37.7 µM; in the assay on DU-145 prostate it was 30.9 µM; with HT29 colon it was 31.8 µM; in the assay with K-562 leukemia, 15.5 µM; in the assay with NCI-H460 lung, 28.7 µM. Further, the TGI in the assay on OVCAR-8 ovarian is 28.3 µM; in the assay with SW-620 colon, 34.3 µM; with T-47D breast, 15.2 µM; with UO-31 renal, 36.5 µM.
Take `COc1ccc(Cn2cc3c(c2-c2ccccc2)CC(C)(C)c2cnoc2-3)cc1`: the GI50 is 5.06 µM in the assay with ACHN renal; 1.65 µM in the assay on COLO 205 colon; 1.78 µM in the assay on DU-145 prostate; 0.95 µM in the assay on HT29 colon; 0.377 µM with K-562 leukemia; 2.17 µM with NCI-H460 lung. Further, the GI50 is 4.66 µM in the assay with OVCAR-8 ovarian, 0.806 µM in the assay with SW-620 colon, 2.51 µM in the assay with T-47D breast and 3.08 µM in the assay with UO-31 renal. The TGI in the assay with ACHN renal is above 100 µM; with COLO 205 colon, 5.1 µM; with DU-145 prostate it was 7.5 µM; in the assay with HT29 colon it was 7.53 µM; in the assay with K-562 leukemia, above 100 µM; in the assay on NCI-H460 lung, above 100 µM. Further, the TGI in the assay with OVCAR-8 ovarian, in the assay with SW-620 colon, in the assay with T-47D breast and with UO-31 renal was above 100 µM in each case.
In the case of `O=S(=O)(N=S(c1ccccc1)c1ccccc1)c1ccccc1`, the concentration for total growth inhibition (TGI) in the assay with ACHN renal, with COLO 205 colon, in the assay on DU-145 prostate, with HT29 colon, in the assay with K-562 leukemia and in the assay with NCI-H460 lung was above 100 µM each time. The concentration for total growth inhibition (TGI) in the assay with OVCAR-8 ovarian, with SW-620 colon, in the assay with T-47D breast and with UO-31 renal was above 100 µM each time.
On to `COc1cccc2c1C(=O)c1c(O)c3c(c(O)c1C2=O)C[C@@](O)(C(C)=O)C[C@@H]3OC1OC(C)C(O)C(N)C1Br` (stereo not given in full), for which the concentration for total growth inhibition (TGI) with ACHN renal was 0.174 µM and 0.139 µM; with COLO 205 colon it was 2.99 µM and 1.23 µM; in the assay with DU-145 prostate, 2.67 µM; with HT29 colon, 0.573 µM; with K-562 leukemia it was 1.64 µM and 1.03 µM; with NCI-H460 lung it was 0.115 µM and 0.118 µM. Also, the concentration for total growth inhibition (TGI) was 0.207 µM and 0.646 µM with OVCAR-8 ovarian; 0.766 µM and 1.46 µM with SW-620 colon; 0.74 µM with T-47D breast; 0.329 µM and 0.59 µM in the assay with UO-31 renal. The GI50 with COLO 205 colon was 0.219 µM; in the assay with K-562 leukemia, 0.0203 µM; with OVCAR-8 ovarian, 0.0331 µM; in the assay on SW-620 colon, 0.0266 µM; in the assay with UO-31 renal, 0.134 µM.
In the case of `NS(=O)(=O)c1ccc(N=Nc2c(O)[nH]c3ccc(-c4cnco4)cc23)cc1`, the GI50 is 17.7 µM with ACHN renal; above 25 µM with COLO 205 colon; 24.4 µM with DU-145 prostate; above 25 µM with HT29 colon; above 25 µM with K-562 leukemia; 14.3 µM with NCI-H460 lung. The GI50 with OVCAR-8 ovarian was above 19.2 µM; with SW-620 colon, 9.91 µM; in the assay with T-47D breast, above 25 µM; in the assay with UO-31 renal, above 25 µM. Besides, the TGI with ACHN renal, in the assay with COLO 205 colon, in the assay with DU-145 prostate, with HT29 colon, in the assay with K-562 leukemia and with NCI-H460 lung was above 25 µM in each case. Also, the total growth inhibition concentration (TGI) in the assay with OVCAR-8 ovarian, with SW-620 colon, in the assay with T-47D breast and in the assay with UO-31 renal was above 25 µM in each case.

Values taken from PubChem BioAssay (NCI).
